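Five compound concentrations were applied to cells in 96-well plates for 48 hours; endpoints were derived by simple linear interpolation of the resulting dose-response curve. TGI: total growth inhibition.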
Experiments:
Experiment in all cases: NCI anticancer screen, dose series, 48 h
UACC-257 melanoma = test system: UACC-257 melanoma
A549 NSCLC = test system: A549 NSCLC
OVCAR-8 ovarian = test system: OVCAR-8 ovarian
MOLT-4 leukemia = test system: MOLT-4 leukemia
PC-3 prostate = test system: PC-3 prostate
SNB-75 CNS = test system: SNB-75 CNS
MDA-N = test system: MDA-N
NCI-H23 lung = test system: NCI-H23 lung
SF-268 CNS = test system: SF-268 CNS
HCT-15 colon = test system: HCT-15 colon
MALME-3M melanoma = test system: MALME-3M melanoma
EKVX NSCLC = test system: EKVX NSCLC
HS 578T breast = test system: HS 578T breast
SN12C renal = test system: SN12C renal
SW-620 colon = test system: SW-620 colon
HOP-62 NSCLC = test system: HOP-62 NSCLC
TK-10 renal = test system: TK-10 renal
T-47D breast = test system: T-47D breast
HT29 colon = test system: HT29 colon
LOX IMVI melanoma = test system: LOX IMVI melanoma
UO-31 renal = test system: UO-31 renal
HL-60(TB) leukemia = test system: HL-60(TB) leukemia
HCC-2998 colon = test system: HCC-2998 colon
M14 melanoma = test system: M14 melanoma
MDA-MB-231 breast = test system: MDA-MB-231 breast
SK-MEL-2 melanoma = test system: SK-MEL-2 melanoma
HOP-92 NSCLC = test system: HOP-92 NSCLC
A498 renal = test system: A498 renal
SF-295 CNS = test system: SF-295 CNS
OVCAR-3 ovarian = test system: OVCAR-3 ovarian
OVCAR-4 ovarian = test system: OVCAR-4 ovarian
CCRF-CEM leukemia = test system: CCRF-CEM leukemia
K-562 leukemia = test system: K-562 leukemia
SNB-19 CNS = test system: SNB-19 CNS
NCI-H226 lung = test system: NCI-H226 lung
COLO 205 colon = test system: COLO 205 colon
NCI-H522 lung = test system: NCI-H522 lung
CAKI-1 renal = test system: CAKI-1 renal
SK-MEL-5 melanoma = test system: SK-MEL-5 melanoma
SK-OV-3 ovarian = test system: SK-OV-3 ovarian
MCF7 breast = test system: MCF7 breast
SR leukemia = test system: SR leukemia
ACHN renal = test system: ACHN renal
UACC-62 melanoma = test system: UACC-62 melanoma
786-0 renal = test system: 786-0 renal
HCT-116 colon = test system: HCT-116 colon
RXF 393 renal = test system: RXF 393 renal
SK-MEL-28 melanoma = test system: SK-MEL-28 melanoma
U251 CNS = test system: U251 CNS
NCI/ADR-RES ovarian = test system: NCI/ADR-RES ovarian
KM12 colon = test system: KM12 colon
IGROV1 ovarian = test system: IGROV1 ovarian
DU-145 prostate = test system: DU-145 prostate
SF-539 CNS = test system: SF-539 CNS
MDA-MB-435 = test system: MDA-MB-435
RPMI-8226 leukemia = test system: RPMI-8226 leukemia
NCI-H460 lung = test system: NCI-H460 lung
OVCAR-5 ovarian = test system: OVCAR-5 ovarian
BT-549 breast = test system: BT-549 breast

Structure (SMILES): CCNc1cc2c3c(c1)CCN3CCC2
- TGI (UACC-257 melanoma): > 10 µM
- TGI (A549 NSCLC): > 10 µM
- TGI (OVCAR-8 ovarian): > 10 µM
- TGI (MOLT-4 leukemia): > 10 µM
- TGI (PC-3 prostate): > 10 µM
- TGI (SNB-75 CNS): > 10 µM
- TGI (MDA-N): > 10 µM
- TGI (NCI-H23 lung): > 10 µM
- TGI (SF-268 CNS): > 10 µM
- TGI (HCT-15 colon): > 10 µM
- TGI (MALME-3M melanoma): > 10 µM
- TGI (EKVX NSCLC): > 10 µM
- TGI (HS 578T breast): > 10 µM
- TGI (SN12C renal): > 10 µM
- TGI (SW-620 colon): > 10 µM
- TGI (HOP-62 NSCLC): > 10 µM
- TGI (TK-10 renal): > 10 µM
- TGI (T-47D breast): > 10 µM
- TGI (HT29 colon): > 10 µM
- TGI (LOX IMVI melanoma): > 10 µM
- TGI (UO-31 renal): > 10 µM
- TGI (HL-60(TB) leukemia): > 10 µM
- TGI (HCC-2998 colon): > 10 µM
- TGI (M14 melanoma): > 10 µM
- TGI (MDA-MB-231 breast): > 10 µM
- TGI (SK-MEL-2 melanoma): > 10 µM
- TGI (HOP-92 NSCLC): > 10 µM
- TGI (A498 renal): > 10 µM
- TGI (SF-295 CNS): > 10 µM
- TGI (OVCAR-3 ovarian): > 10 µM
- TGI (OVCAR-4 ovarian): > 10 µM
- TGI (CCRF-CEM leukemia): > 10 µM
- TGI (K-562 leukemia): 5.05 µM
- TGI (SNB-19 CNS): > 10 µM
- TGI (NCI-H226 lung): > 10 µM
- TGI (COLO 205 colon): > 10 µM
- TGI (NCI-H522 lung): > 10 µM
- TGI (CAKI-1 renal): > 10 µM
- TGI (SK-MEL-5 melanoma): > 10 µM
- TGI (SK-OV-3 ovarian): > 10 µM
- TGI (MCF7 breast): > 10 µM
- TGI (SR leukemia): > 10 µM
- TGI (ACHN renal): > 10 µM
- TGI (UACC-62 melanoma): > 10 µM
- TGI (786-0 renal): > 10 µM
- TGI (HCT-116 colon): > 10 µM
- TGI (RXF 393 renal): > 10 µM
- TGI (SK-MEL-28 melanoma): > 10 µM
- TGI (U251 CNS): > 10 µM
- TGI (NCI/ADR-RES ovarian): > 10 µM
- TGI (KM12 colon): > 10 µM
- TGI (IGROV1 ovarian): > 10 µM
- TGI (DU-145 prostate): > 10 µM
- TGI (SF-539 CNS): > 10 µM
- TGI (MDA-MB-435): > 10 µM
- TGI (RPMI-8226 leukemia): > 10 µM
- TGI (NCI-H460 lung): > 10 µM

Structure (SMILES): CC(C)(C)C1=C(Br)C(O)(C(C)(C)C)OP1(=O)c1ccccc1 (centres undefined)
- TGI (UACC-257 melanoma): > 100 µM
- TGI (A549 NSCLC): > 100 µM
- TGI (OVCAR-8 ovarian): > 100 µM
- TGI (MOLT-4 leukemia): > 100 µM
- TGI (PC-3 prostate): > 100 µM
- TGI (SNB-75 CNS): > 100 µM
- TGI (MDA-N): > 100 µM
- TGI (NCI-H23 lung): > 100 µM
- TGI (SF-268 CNS): > 100 µM
- TGI (HCT-15 colon): > 100 µM
- TGI (MALME-3M melanoma): > 100 µM
- TGI (EKVX NSCLC): > 100 µM
- TGI (HS 578T breast): > 100 µM
- TGI (SN12C renal): > 100 µM
- TGI (SW-620 colon): > 100 µM
- TGI (HOP-62 NSCLC): > 100 µM
- TGI (OVCAR-5 ovarian): > 100 µM
- TGI (TK-10 renal): > 100 µM
- TGI (T-47D breast): > 100 µM
- TGI (HT29 colon): > 100 µM
- TGI (LOX IMVI melanoma): > 100 µM
- TGI (HL-60(TB) leukemia): > 100 µM
- TGI (HCC-2998 colon): > 100 µM
- TGI (MDA-MB-231 breast): > 100 µM
- TGI (SK-MEL-2 melanoma): > 100 µM
- TGI (HOP-92 NSCLC): > 100 µM
- TGI (A498 renal): > 100 µM
- TGI (SF-295 CNS): > 100 µM
- TGI (OVCAR-3 ovarian): > 100 µM
- TGI (OVCAR-4 ovarian): > 100 µM
- TGI (CCRF-CEM leukemia): > 100 µM
- TGI (K-562 leukemia): > 100 µM
- TGI (SNB-19 CNS): > 100 µM
- TGI (COLO 205 colon): > 100 µM
- TGI (NCI-H522 lung): > 100 µM
- TGI (CAKI-1 renal): > 100 µM
- TGI (SK-MEL-5 melanoma): > 100 µM
- TGI (SK-OV-3 ovarian): > 100 µM
- TGI (MCF7 breast): 43.1 µM
- TGI (ACHN renal): > 100 µM
- TGI (UACC-62 melanoma): > 100 µM
- TGI (786-0 renal): > 100 µM
- TGI (RXF 393 renal): > 100 µM
- TGI (SK-MEL-28 melanoma): > 100 µM
- TGI (U251 CNS): > 100 µM
- TGI (NCI/ADR-RES ovarian): > 100 µM
- TGI (KM12 colon): > 100 µM
- TGI (IGROV1 ovarian): > 100 µM
- TGI (DU-145 prostate): > 100 µM
- TGI (SF-539 CNS): > 100 µM
- TGI (MDA-MB-435): > 100 µM
- TGI (NCI-H460 lung): > 100 µM

Structure (SMILES): COc1cc(Oc2nc3cc(F)c(F)cc3nc2-c2ccccc2)cc(OC)c1OC
- TGI (UACC-257 melanoma): > 100 µM
- TGI (A549 NSCLC): > 100 µM
- TGI (OVCAR-8 ovarian): > 100 µM
- TGI (MOLT-4 leukemia): > 100 µM
- TGI (PC-3 prostate): > 100 µM
- TGI (SNB-75 CNS): 51.2 µM
- TGI (MDA-N): > 100 µM
- TGI (NCI-H23 lung): > 100 µM
- TGI (SF-268 CNS): > 100 µM
- TGI (HCT-15 colon): > 100 µM
- TGI (MALME-3M melanoma): 96.9 µM
- TGI (EKVX NSCLC): > 100 µM
- TGI (HS 578T breast): > 100 µM
- TGI (SN12C renal): > 100 µM
- TGI (SW-620 colon): > 100 µM
- TGI (HOP-62 NSCLC): > 100 µM
- TGI (OVCAR-5 ovarian): > 100 µM
- TGI (TK-10 renal): > 100 µM
- TGI (T-47D breast): > 100 µM
- TGI (HT29 colon): > 100 µM
- TGI (LOX IMVI melanoma): > 100 µM
- TGI (UO-31 renal): > 100 µM
- TGI (HL-60(TB) leukemia): > 100 µM
- TGI (M14 melanoma): > 100 µM
- TGI (SK-MEL-2 melanoma): > 100 µM
- TGI (HOP-92 NSCLC): > 100 µM
- TGI (A498 renal): > 100 µM
- TGI (SF-295 CNS): > 100 µM
- TGI (OVCAR-3 ovarian): > 100 µM
- TGI (OVCAR-4 ovarian): > 100 µM
- TGI (CCRF-CEM leukemia): > 100 µM
- TGI (SNB-19 CNS): > 100 µM
- TGI (NCI-H226 lung): > 100 µM
- TGI (COLO 205 colon): > 100 µM
- TGI (BT-549 breast): > 100 µM
- TGI (NCI-H522 lung): > 100 µM
- TGI (CAKI-1 renal): > 100 µM
- TGI (SK-MEL-5 melanoma): 75.3 µM
- TGI (SK-OV-3 ovarian): > 100 µM
- TGI (MCF7 breast): > 100 µM
- TGI (SR leukemia): > 100 µM
- TGI (ACHN renal): > 100 µM
- TGI (UACC-62 melanoma): > 100 µM
- TGI (786-0 renal): > 100 µM
- TGI (HCT-116 colon): > 100 µM
- TGI (RXF 393 renal): > 100 µM
- TGI (SK-MEL-28 melanoma): > 100 µM
- TGI (U251 CNS): > 100 µM
- TGI (NCI/ADR-RES ovarian): > 100 µM
- TGI (KM12 colon): > 100 µM
- TGI (IGROV1 ovarian): > 100 µM
- TGI (DU-145 prostate): > 100 µM
- TGI (SF-539 CNS): 58.7 µM
- TGI (MDA-MB-435): > 100 µM
- TGI (NCI-H460 lung): > 100 µM

From PubChem BioAssay (NCI)
